Source: US4605744A, “Imidazole derivatives” (Hoffmann-La Roche Inc., priority 1985, dated 1986)
Where a name gives a salt, the structure may show the parent alone. Read-outs that look alike come from different tables or passages of the source.

Key:
E. coli 257 = assay: In vivo antibacterial activity (PD50); settings: Escherichia coli, 257, sc
E. coli 5152 = assay: In vivo antibacterial activity (PD50); settings: Escherichia coli, 5152, sc
S. aureus Smith = assay: In vivo antibacterial activity (PD50); settings: Staphylococcus aureus, sc
P. aeruginosa 6720 = assay: In vivo antibacterial activity (PD50); settings: Pseudomonas aeruginosa, 6720, sc, 2 treatments
P. aeruginosa 6799 = assay: In vivo antibacterial activity (PD50); settings: Pseudomonas aeruginosa, 6799, sc, sc, 2 treatments, read-out: PD50
K. pneumoniae HE7 = assay: In vivo antibacterial activity (PD50); settings: Klebsiella pneumoniae, HE7, sc, 2 treatments
E. coli 4 = assay: In vivo antibacterial activity (PD50); settings: Escherichia coli, sc, Table 9
E. aerogenes 83 = assay: In vivo antibacterial activity (PD50); settings: Klebsiella aerogenes, sc, Table 9
S. marcescens SM = assay: In vivo antibacterial activity (PD50); settings: sc; for ED50: Serratia marcescens
S. marcescens S5 = assay: In vivo antibacterial activity (PD50); settings: Serratia marcescens, sc, Table 9
P. aeruginosa POW151 = assay: In vivo antibacterial activity (PD50); settings: Pseudomonas aeruginosa, sc, Table 9
S. aureus Giorgio = assay: In vivo antibacterial activity (PD50); settings: Staphylococcus aureus; sc; Table 9
S. pyogenes 503-782 = assay: In vivo antibacterial activity (PD50); settings: Streptococcus pyogenes, 503782; sc; Table 9
S. pneumoniae SC = assay: In vivo antibacterial activity (PD50); settings: Streptococcus pneumoniae
S. pneumoniae 6302 = assay: In vivo antibacterial activity (PD50); settings: Streptococcus pneumoniae, 6302, sc
S. pneumoniae 6301 = assay: In vivo antibacterial activity (PD50); settings: Streptococcus pneumoniae, sc, Table 9
S. faecalis C1 = assay: In vivo antibacterial activity (PD50); settings: sc; for ED50: Enterococcus faecalis, C1
S. marcescens S3 = assay: In vivo antibacterial activity (PD50); settings: Serratia marcescens, S3, sc, read-out: PD50
E. coli 387-1 = assay: In vivo antibacterial activity (PD50); settings: Escherichia coli, 3871; sc; challenge 127 LD50s; 1 treatment; Table 11
K. pneumoniae 8357 = assay: animal or person; type: in vivo; settings: Klebsiella pneumoniae, 8357, sc, read-out: PD50
E. cloacae 214 = assay: In vivo antibacterial activity (PD50); settings: Enterobacter cloacae, sc, challenge 3.8 LD50s, 2 treatments, Table 11
Procedure: (§1) In Tables 9-14, the results of the in vivo activity against certain microorganisms of compounds I, M and N as given. […] The results in these Tables and the PD50 's were determined by the procedure set forth on page 160 in Beskid et al., Antimicrobial Agents and Chemotherapy, Vol. 20, No. 2 pp. 159-167 (Aug. 1981) for "in vivo studies".

S. schottmuelleri = assay: In vivo antibacterial activity (PD50); settings: sc; challenge 163 LD50s; 1 treatment; Table 11
Procedure: as §1

C. freundii 8ASM = assay: In vivo antibacterial activity (PD50); settings: Citrobacter freundii, sc, challenge 1000 LD50s, 1 treatment, Table 11
P. vulgaris 100 = assay: In vivo antibacterial activity (PD50); settings: Proteus vulgaris; sc; challenge 100 LD50s; 1 treatment; Table 11
P. mirabilis 190 = assay: In vivo antibacterial activity (PD50); settings: Proteus mirabilis, sc, challenge 10^4 LD50s, 1 treatment, Table 11
E. coli 736 = assay: In vivo activity alone and in combination (PD50, FIC); settings: Escherichia coli, sc, alone
Procedure: as §1
In the Tables, the fractional inhibitory concentration index (FIC) for synergistic combination of a compound of this invention (X) with known antibiotic compound (Y) is determined by the following formula:
FIC=(PD50 (X combination)/PD50 (X alone)+(PD50 (Y
combination)/PD50 (Y alone)
An FIC of ≤0.60 is indicative of synergy. The synergy rating in the Tables is as follows:
In the combination, the parts are parts by weight, i.e. 10 to 1 is 10 parts by weight to 1 part by weight.

[1] = challenge >10^4 LD50s, 1 treatment, Table 10
[2] = challenge 2717 LD50s, 2 treatments, Table 10
[3] = challenge 48 LD50s, 2 treatments, Table 10
[4] = challenge 100 LD50s, 2 treatments, Table 10
[5] = challenge >10^4 LD50s, 1 treatment, Table 11
[6] = challenge 4780 LD50s, 2 treatments, Table 11
[7] = challenge 489 LD50s, 2 treatments, Table 11
[8] = challenge 70 LD50s, 2 treatments, Table 11
[9] = challenge 1000 LD50s, 1 treatment, Table 11
[10] = challenge 10 LD50s, 1 treatment, Table 11

## CC1(C)S[C@@H]2[C@H](N=CN3CCC(CC4=NCCN4)CC3)C(=O)N2[C@H]1C(=O)O [M, [2S-(2alpha,5alpha,6beta)]-6-[[[4-[(4,5-dihydro-1H-imidazol-2-yl)methyl]-1-piperidinyl]methylene]amino]-3,3-dimethyl-7-oxo-4-thia-1-azabicyclo[3.2.0]heptane-2-carboxylic acid hydrochloride]
E. coli 257; [1]
  ED50: 1.5 mg/kg
E. coli 5152; [2]
  ED50: 134 mg/kg
S. aureus Smith; [3]
  ED50: < 5 mg/kg
S. aureus Smith; [4]
  ED50: 6.7 mg/kg
P. aeruginosa 6720; challenge 3511 LD50s, Table 10
  ED50: 29 mg/kg
P. aeruginosa 6799; challenge 48 LD50s, Table 10
  ED50: > 250 mg/kg
K. pneumoniae HE7; challenge 750 LD50s, Table 10
  ED50: 71 mg/kg

## CC1(C)S[C@@H]2[C@H](/N=C/N3CCCCCC3)C(=O)N2[C@H]1C(=O)O [Amdinocillin, amdinocillin, reference compound]
E. coli 257; Table 9
  ED50: < 0.025 mg/kg
E. coli 257; [1]
  ED50: < 1 mg/kg
E. coli 257; [5]
  ED50: < 2 mg/kg
E. coli 5152; Table 9
  ED50: > 250 mg/kg
E. coli 5152; [2]
  ED50: 84 mg/kg
E. coli 5152; [6]
  ED50: 150 mg/kg
E. coli 4
  ED50: 4.6 mg/kg
E. aerogenes 83
  ED50: > 250 mg/kg
S. marcescens SM; Table 9
  ED50: > 250 mg/kg
S. marcescens SM; [7]
  PD50: > 250 mg/kg
S. marcescens S5
  ED50: > 250 mg/kg
P. aeruginosa POW151
  ED50: 143 mg/kg
S. aureus Smith; Table 9
  ED50: 69 mg/kg
S. aureus Smith; [3]
  ED50: 22 mg/kg
S. aureus Smith; [8]
  ED50: 13 mg/kg
S. aureus Smith; [4]
  ED50: 12 mg/kg
S. aureus Giorgio
  ED50: > 250 mg/kg
S. pyogenes 503-782
  ED50: 80 mg/kg
S. pneumoniae SC; Table 9, read-out: PD50
  ED50: < 2 mg/kg
S. pneumoniae 6302; Table 9
  ED50: 204 mg/kg
S. pneumoniae 6302; [9]
  ED50: > 250 mg/kg
S. pneumoniae 6301
  ED50: 192 mg/kg
S. faecalis C1; Table 9
  ED50: > 250 mg/kg
S. faecalis C1; [10]
  PD50: > 250 mg/kg
P. aeruginosa 6720; challenge 35 LD50s, Table 11
  ED50: > 250 mg/kg
P. aeruginosa 6720; challenge 3511 LD50s, Table 10
  ED50: > 250 mg/kg
P. aeruginosa 6799; challenge 48 LD50s, Table 10
  ED50: 117 mg/kg
P. aeruginosa 6799; challenge 71 LD50s, Table 11
  ED50: > 250 mg/kg
K. pneumoniae HE7; challenge 750 LD50s, Table 10
  ED50: > 250 mg/kg
K. pneumoniae HE7; challenge 1000 LD50s, Table 11
  ED50: > 250 mg/kg
S. marcescens S3
  ED50: 2.7 mg/kg
E. coli 387-1
  ED50: < 0.2 mg/kg
K. pneumoniae 8357
  ED50: 6.7 mg/kg
E. cloacae 214
  ED50: < 10 mg/kg
S. schottmuelleri
  ED50: 0.25 mg/kg
C. freundii 8ASM
  ED50: 0.76 mg/kg
P. vulgaris 100
  ED50: 45 mg/kg
P. mirabilis 190
  ED50: 117 mg/kg

## CC1(C)S[C@@H]2[C@H](N=CN3CCC(CCCn4ccnc4N)CC3)C(=O)N2[C@H]1C(=O)O [I, [2S-(2alpha,5alpha,6beta)]-6-[[[4-[3-(2-amino-1H-imidazol-1-yl)propyl]piperidinyl]methylene]amino]-3,3-dimethyl-7-oxo-4-thia-1-azabicyclo[3.2.0]hpetane-2-carboxylic acid hydrochloride]
E. coli 257; Table 9
  ED50: < 0.2 mg/kg
E. coli 5152; Table 9
  ED50: > 250 mg/kg
E. coli 4
  ED50: 1.9 mg/kg
E. aerogenes 83
  ED50: > 250 mg/kg
S. marcescens SM; Table 9
  ED50: > 250 mg/kg
S. marcescens S5
  ED50: > 250 mg/kg
P. aeruginosa POW151
  ED50: 111 mg/kg
S. aureus Smith; Table 9
  ED50: 61 mg/kg
S. aureus Giorgio
  ED50: > 250 mg/kg
S. pyogenes 503-782
  ED50: 59 mg/kg
S. pneumoniae SC; read-out: PD50
  ED50: 3.6 mg/kg
S. pneumoniae 6302; Table 9
  ED50: 202 mg/kg
S. pneumoniae 6301
  ED50: > 250 mg/kg
S. faecalis C1; Table 9
  ED50: > 250 mg/kg
E. coli 736
  ED50: 0.05 mg/kg

## CC1(C)S[C@@H]2[C@H](N=CN3CCC(CCC4=NCCN4)CC3)C(=O)N2[C@H]1C(=O)O [N, [2S-(2alpha,5alpha,6beta)]-6-[[[4-[4,5-dihydro-1H-imidazol-2-yl)ethyl]-1-piperidinyl]methylene]amino]-3,3-dimethyl-7-oxo-4-thia-1-azabicyclo[3.2.0]heptane-2-carboxylic acid hydrochloride]
E. coli 257; [5]
  ED50: < 1 mg/kg
E. coli 5152; [6]
  ED50: 30 mg/kg
S. marcescens SM; [7]
  ED50: 19 mg/kg
S. aureus Smith; [8]
  ED50: 12 mg/kg
S. pneumoniae 6302; [9]
  ED50: 78 mg/kg
S. faecalis C1; [10]
  ED50: 62 mg/kg
P. aeruginosa 6720; challenge 35 LD50s, Table 11
  ED50: 20 mg/kg
P. aeruginosa 6799; challenge 71 LD50s, Table 11
  ED50: > 250 mg/kg
K. pneumoniae HE7; challenge 1000 LD50s, Table 11
  ED50: > 250 mg/kg
S. marcescens S3
  ED50: < 0.5 mg/kg
E. coli 387-1
  ED50: < 0.2 mg/kg
K. pneumoniae 8357
  ED50: 6.2 mg/kg
E. cloacae 214
  ED50: < 10 mg/kg
S. schottmuelleri
  ED50: < 0.05 mg/kg
C. freundii 8ASM
  ED50: 0.22 mg/kg
P. vulgaris 100
  ED50: 67 mg/kg
P. mirabilis 190
  ED50: 140 mg/kg
